Molecules are shown by their SMILES.

The test system of data set [1] is A549 cells (human lung carcinoma cell line). Put plainly: A549 cell proliferation MTT assay. Particulars: 120 h, 5 days incubation, MTT readout at 550 nm. The class given is cell-based. How it is done: A549 cells (human lung carcinoma cell line) were cultivated in RPMI 1640, 2.5% FCS, 2 mM glutamine, 100 u/ml Penicillin, 100 μg/ml Streptomycin. For the assay the cells were seeded in 384 well plates, 900 cells per well, in the same medium. The next day compounds (dissolved 10 mM in DMSO) were added in various concentrations ranging from 3 μM to 0.15 nM (10 concentrations, 1:3 diluted). After 5 days the MTT assay was done mainly according to the instructions of the manufacturer (Cell proliferation kit I, MTT, from Roche Molecular Biochemicals). In brief, MTT labeling reagent was added to a final concentration of 0.5 mg/ml, added and incubated for 4 hrs at 37 C, 5% CO2. During this incubation time purple formazan crystals are formed. After addition of the solubilization solution (20% SDS in 0.02 M HCl) the plates were incubated overnight at 37° C., 5% CO2.
After careful mixing the plates were measured in Victor 2 (scanning multiwell spectrophotometer, Wallac) at 550 nm.
A decrease in number of living cells results in a decrease in the total metabolic activity in the sample. The decrease directly correlates to the amount of purple color resulting from the solubilization of the purple formazan crystals.
A549: 900 cells in 60 μl per well of 384 well plate (Greiner) • Medium: RPMI 1640, 2.5% FCS, glutamine, pen/strep. • Incubate 1 day at 37° C.
Induction: • Dilution of compound in DMSO: 3 μl 10 mM+27 μl DMSO, dilute 1:3 • Add 2 μl of compound dilution row to 95 μl of medium • Add 10 μl of compound dilution to 60 μl medium in test plate ? 0.3% DMSO per well • Incubate 120 h (5 days) at 37° C., 5% CO2
Analysis: • Add 7 μl MTT (5 mg/ml/well), incubate 4 h at 37° C. • Add 30 μl lysis buffer (20% SDS, 0.04 N HCl) per well • Incubate overnight at 37° C.
Measurement: • Victor 2; 550 nm • Determination of IC50 was done using XL-fit.
(In general: Tetrazolium dyes change colour on reduction, which living cells bring about.)

Broadly, the melting point is the temperature, or range, at which the solid turns liquid. With `COc1ccc(/C=C/c2nc(COc3ccc(-c4nc(Cn5ccnn5)co4)cc3)co2)cc1` [Example 1, 1-[2-(4-{2-[(E)-2-(4-Methoxy-phenyl)-vinyl]-oxazol-4-ylmethoxy}-phenyl)-oxazol-4-ylmethyl]-1H-[1,2,3]triazole], the melting point amounted to 178 °C. The term IC50 denotes the concentration that inhibits the measured activity by half. A high value points to weaker potency. As for `FC(F)(F)Oc1ccc(/C=C/c2nc(COc3ccc(-c4nc(Cn5ccnn5)co4)cc3)co2)cc1` [Example 2, 1-[2-(4-{2-[(E)-2-(4-Trifluoromethoxy-phenyl)-vinyl]-oxazol-4-ylmethoxy}-phenyl) -oxazol-4-ylmethyl]-1H-[1,2,3]triazole], the melting point is 166 to 172 °C. The IC50 in data set [1] stood at 46 nM. The matching figures for `FC(F)(F)Sc1ccc(/C=C/c2nc(COc3ccc(-c4nc(Cn5ccnn5)co4)cc3)co2)cc1` [Example 3, 1-[2-(4-{2-[(E)-2-(−4-Trifluoromethylsulfanyl-phenyl)-vinyl]-oxazol-4-ylmethoxy}-phenyl)-oxazol-4-ylmethyl]-1H-[1,2,3]triazole]: 172 to 173 °C and 46 nM.

Compound `FC(F)(F)c1ccc(/C=C/c2nc(COc3ccc(-c4nc(Cn5ccnn5)co4)cc3)co2)cc1` [Example 4, 1-[2-(4-{2-[(E)-2-(4-Trifluoromethyl-phenyl)-vinyl]-oxazol-4-ylmethoxy}-phenyl) -oxazol-4-ylmethyl]-1H-[1,2,3]triazole] returned a melting point of 170 °C. Besides, the IC50 in data set [1] is 45 nM. In turn, `Clc1ccc(/C=C/c2nc(COc3ccc(-c4nc(Cn5ccnn5)co4)cc3)co2)cc1` [Example 5, 1-[2-(4-{2-[(E)-2-(4-Chloro-phenyl)-vinyl]-oxazol-4-ylmethoxy}-phenyl)-oxazol-4-ylmethyl]-1H-[1,2,3]triazole] showed a melting point of 208 to 210 °C. In data set [1], this compound had an IC50 of 69 nM. `Fc1cc(C(F)(F)F)ccc1/C=C/c1nc(COc2ccc(-c3nc(Cn4ccnn4)co3)cc2)co1` [Example 6, 1-[2-(4-{2-[(E)-2-(2-Fluoro-4-trifluoromethyl-phenyl)-vinyl]-oxazol-4-ylmethoxy}-phenyl)-oxazol-4-ylmethyl]-1H-[1,2,3]triazole] displayed a melting point of 152 to 154 °C. Inhibition in data set [1] was half-maximal at 7 nM (IC50). Consider `FC(F)(F)c1ccc(/C=C/c2nc(COc3ccc(-c4nc(Cn5ccnn5)cs4)cc3)co2)cc1` [Example 7, 1-[2-(4-{2-[(E)-2-(4-Trifluoromethyl-phenyl)-vinyl]-oxazol-4-ylmethoxy}-phenyl) -thiazol-4-ylmethyl]-1H-[1,2,3]triazole], for which the melting point was 163 to 165 °C. Moreover, inhibition in data set [1] was half-maximal at 37 nM (IC50).

`Fc1cc(C(F)(F)F)ccc1/C=C/c1nc(COc2ccc(-c3nc(Cn4ccnn4)cs3)cc2)co1` [Example 8, 1-[2-(4-{2-[(E)-2-(2-Fluoro-4-trifluoromethyl-phenyl)-vinyl]-oxazol-4-ylmethoxy}-phenyl)-thiazol-4-ylmethyl]-1H-[1,2,3]triazole]: the melting point was 180 to 182 °C. In addition, in data set [1], the IC50 amounted to 70 nM. The matching figures for `Fc1cc(Cl)ccc1/C=C/c1nc(COc2ccc(-c3nc(Cn4ccnn4)co3)cc2)co1` [Example 9, 1-[2-(4-{2-[(E)-2-(4-Chloro-2-fluoro-phenyl)-vinyl]-oxazol-4-ylmethoxy}-phenyl)oxazole-4-ylmethyl]-1H-[1,2,3]triazole]: 193 to 194 °C and 11 nM. Regarding `FC(F)(F)c1ccc(/C=C/c2nc(COc3ccc(-c4nc(Cn5ccnn5)co4)cc3)cs2)cc1` [Example 10, 1-[2-(4-{2-[(E)-2-(4-Trifluoromethyl-phenyl)-vinyl]-thiazol-4-ylmethoxy}-phenyl) -oxazol-4-ylmethyl]-1H-[1,2,3]triazole], the melting point lay in the range of 179 to 181 °C. Besides, half-maximal inhibition in data set [1] (IC50) required 60 nM.

Regarding `FC(F)(F)c1ccc(/C=C/c2nc(COc3ccc(-c4nc(Cn5ccnn5)cs4)cc3)cs2)cc1` [Example 11, 1-[2-(4-{2-[(E)-2-(4-Trifluoromethyl-phenyl)-vinyl]-thiazol-4-ylmethoxy}-phenyl) -thiazole-4-ylmethyl]-1H-[1,2,3]triazole], the melting point lay within 146 to 148 °C. Same read-out and setting: the value for `Fc1cc(C(F)(F)F)ccc1/C=C/c1nc(COc2ccc(-c3nc(Cn4ccnc4)cs3)cc2)co1` [Example 12, 2-[(E)-2-(2-Fluoro-4-trifluoromethyl-phenyl)-vinyl]-4-[4-(4-imidazol-1-ylmethyl-thiazole-2-yl)-phenoxymethyl]-oxazole] was 133 to 135 °C; that for `Fc1cc(C(F)(F)F)ccc1/C=C/c1nc(COc2ccc(-c3nc(Cn4ccnc4)co3)cc2)co1` [Example 13, 2-[(E)-2-(2-Fluoro-4-trifluoromethyl-phenyl)-vinyl]-4-[4-(4-imidazol-1-ylmethyl-oxazol-2-yl)-phenoxymethyl]-oxazole] was 150 to 153 °C. On to `Fc1cc(Cl)ccc1/C=C/c1nc(COc2ccc(-c3nc(Cn4ccnc4)co3)cc2)co1` [Example 14, 2-[(E)-2-(2-Fluoro-4-chloro-phenyl)-vinyl]-4-[4-(4-imidazol-1-ylmethyl-oxazol-2-yl)phenoxymethyl]-oxazole], for which the melting point lay in the range of 166 to 167 °C. As to `[O-][S+](c1ccc(/C=C/c2nc(COc3ccc(-c4nc(Cn5ccnn5)co4)cc3)co2)cc1)C(F)(F)F` (stereo not shown) [Example 15, 1-[2-(4-{2-[(E)-2-(−4-Trifluoromethylsulfinyl-phenyl)-vinyl]-oxazol-4-ylmethoxy}-phenyl)-oxazol-4-ylmethyl]-1H-[1,2,3]triazole], the melting point lay in the range of 167 to 169 °C. `FC(F)(F)Sc1ccc(/C=C/c2nc(COc3ccc(-c4nc(Cn5ccnc5)co4)cc3)co2)cc1` [Example 16, 1-[2-(4-{2-[(E)-2-(−4-Trifluoromethylsulfanyl-phenyl)-vinyl]-oxazol-4-ylmethoxy}-phenyl)-oxazol-4-ylmethyl]-1H-imidazole] registered a melting point of 144 to 145 °C. Turning to `[O-][S+](c1ccc(/C=C/c2nc(COc3ccc(-c4nc(Cn5ccnc5)co4)cc3)co2)cc1)C(F)(F)F` (stereo not shown) [Example 17, 1-[2-(4-{2-[(E)-2-(−4-Trifluoromethylsulfinyl-phenyl)-vinyl]-oxazol-4-ylmethoxy}-phenyl)-oxazol-4-ylmethyl]-1H-imidazole], the melting point was in the range of 134 to 136 °C. `OCCc1nccn1Cc1coc(-c2ccc(OCc3coc(/C=C/c4ccc(Cl)cc4F)n3)cc2)n1` [Example 18, 2-{1-[2-(4-{2-[(E)-2-(4-Chloro-2-fluoro-phenyl)-vinyl]-oxazol-4-ylmethoxy}-phenyl)-oxazole-4-ylmethyl]-1H-imidazol-2-yl}-ethanol] came in with a melting point of 170 to 172 °C. For `FS(F)(F)(F)(F)c1ccc(/C=C/c2nc(COc3ccc(-c4nc(Cn5ccnn5)co4)cc3)co2)cc1` [Example 19, 1-[2-(4-{2-[(E)-2-(4-Pentafluorosulfanyl-phenyl)-vinyl]-oxazol-4-ylmethoxy}-phenyl) -oxazol-4-ylmethyl]-1H-[1,2,3]triazole], the melting point fell in the range of 172 to 174 °C.

(Values after patent US7259262B2, “Arylazole derivatives, their manufacture and use as pharmaceutical agents” (Hoffmann-La Roche Inc., priority 2003, dated 2007).)
